# Measurements as given in patent US7977369B2, “Medical compositions for intravesical treatment of bladder cancer” (Spectrum Pharmaceuticals, Inc., priority 2001, dated 2011).
# Like-named read-outs stand apart in the source and are kept apart here.
# Tests used:
# [1] = Stability of EO9 at acidic pH; conditions: buffer
# recombinant human NQO1 = biological target: T1, recombinant human NQO1 (Homo sapiens, UniProt P15559); experiment: Substrate specificity: reduction of EO9 by NQO1, cytochrome c reporter; assay type: biochemical
# T1 construct: made in house; host or cells: E. coli (pKK233-2 plasmid, IPTG induction)
# Procedure: Substrate specificity. The influence of acidic pHe on substrate specificity for purified human NQ01 was determined as described previously (Phillips 1996, Walton et al, 1991). NQ01 mediated reduction of the quinone to the hydroquinone species is difficult to detect by conventional assays thereby necessitating the use of a reporter signal generating step. In this assay, the hydroquinone acts as an intermediate electron acceptor which subsequently reduces cytochrome c which can readily be detected spectrophotometrically. Recombinant human NQ01 was derived from E. coli transformed with the pKK233-2 expression plasmid containing the full length cDNA sequence for human NQ01 isolated from the (Beall et al, 1994). Following IPTG induction, NQO1 was purified by cybacron blue affinity chromatography, details of which are described elsewhere (Phillips, 1996). […] Reduction of EO9 by recombinant human NQO1 was determined at pH 6.0 and 7.4 by measuring the rate of reduction of cytochrome c was measured at 550 nm on a Beckman DU 650 spectrophotometer according to previously published methods (Phillips, 1996).
# [2] = phase I clinical trials; cited from earlier work
# [3] = test system: HT-29 multicell spheroids; experiment: Chemosensitivity of HT-29 multicell spheroids; assay type: cell-based, human; conditions: for IC50: Homo sapiens, HT-29, 1 h, spheroids
# Procedure: HT-29 multicell spheroids were prepared by seeding 5×10^5 cells into T25 flasks which had been based coated with agar (1% w/v) and incubated for 24 h at 37° C. Immature spheroids were then transferred to a spinner flask (Techne) containing 250 ml of RPMI 1640 growth medium and spheroids were kept in suspension by stirring at 50 rpm. When spheroids reached a diameter of approximately 500 Am, they were harvested for chemosensitivity studies. Multicell spheroids were exposed to a range of EO9 concentrations at pHe 6.0 and 7.4 for one hour at 37° C. Following drug incubation, spheroids were washed twice in HBSS prior to dissagregation into single cells using trypsin EDTA. Disaggregated spheroids were then washed in HBSS and then plated into 96 well plates (1×10^3 cells per well) and incubated at 37° C. for four days. Chemosensitivity was assessed using the NM assay as described elsewhere (Phillips et al, 1992).
# [4] = test system: NSCLC, gastric, breast, pancreatic and colon cancers; conditions: phase II trials; cited from earlier work
# [5] = in humans; cited from earlier work
# H460 cells = experiment: Response of H460 cells to EO9 in the presence or absence of FAA (2 mM); assay type: cell-based, human; conditions: for IC50: Homo sapiens, NCI-H460, H460 cells
# Procedure: Briefly, H460 cells (NQO1 rich) were plated into 96 well plates at a density of 2×10^3 cells per well. Following an overnight incubation at 37° C., medium was replaced with fresh medium (pH 7.4) containing a non-toxic concentration of FAA (2 mM) and incubated for one hour at 37° C. Medium was then replaced with fresh medium containing EO9 (range of drug concentrations) and FAA (2 mM) at either pHe 7.4 or 6.0. Following a further one hour incubation at 37° C., cells were washed twice with HBSS and incubated at 37° C. in growth medium for five days. Chemosensitivity was determined by the NM assay as described above and results were expressed in terms of IC50 values, selectivity ratios (IC50 at pHe 7.4/IC50 at pHe 6.0) and protection ratios (ICSO FAA/EO9 combinations/IC50 for EO9 alone).
# [6] = test system: NQ01 rich and deficient tumors; conditions: intratumoural administration; cited from earlier work
# HT-29 = experiment: Chemosensitivity, one hour drug exposure, MTT assay, monolayer; assay type: cell-based, human
# Description: (§1) Cell culture and chemosensitivity studies. […] H460 (human NSCLC) cell line was obtained from the American Type Culture Collection (ATCC). HT-29 (human colon carcinoma), RT112/83 (human bladder carcinoma epithelial), EJ138 (human bladder carcinoma) and T24/83 (human bladder transitional cell carcinoma) cell lines were obtained from the European Collection of Animal Cell Cultures (ECACC). A2780 (human ovarian carcinoma) and BE (human colon carcinoma) cells were gifts from Dr T Ward (Paterson Institute, Manchester, UK). All cell lines were maintained as monolayer cultures in RPNII 1640 culture medium supplemented with fetal calf serum (10%), sodium pyruvate (2 mM), L-glutamine (2 mM), penicillin/streptomycin (50 IU/ml/50 jug/ml) and buffered with HEPES (25 mK). All cell culture materials were purchased from Gibco BRL (Paisley, UK). […] Calibration curves were conducted over a broad range of pH values in culture medium (pH 3.5 to 11) and the stability of the pH conditions monitored over a one hour incubation period at 37° C.
# RT112 = experiment: as above; assay type: cell-based, human
# Description: as §1
# H460 = experiment: as above; assay type: cell-based, human
# Description: as §1
# BE = experiment: as above; assay type: cell-based, human
# Description: as §1
# T24/83 = experiment: as above; assay type: cell-based, human
# Description: as §1
# A2780 = experiment: as above; assay type: cell-based, human
# Description: as §1
# EJ138 = experiment: as above; assay type: cell-based, human
# Description: as §1
# [7] = Solubility of EO9 in formulation vehicle and water
# histocultures = conditions: cited from earlier work
# T1 sequence (P15559 whole entry): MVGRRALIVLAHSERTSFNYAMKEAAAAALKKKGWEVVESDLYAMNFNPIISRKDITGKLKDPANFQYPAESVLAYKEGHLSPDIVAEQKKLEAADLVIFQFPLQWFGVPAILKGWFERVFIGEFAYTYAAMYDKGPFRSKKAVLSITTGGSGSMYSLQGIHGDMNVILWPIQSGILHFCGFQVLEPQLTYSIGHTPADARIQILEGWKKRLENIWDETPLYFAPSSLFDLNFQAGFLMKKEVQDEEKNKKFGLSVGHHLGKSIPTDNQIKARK
compound,measurement,setting,value
"Cn1c(/C=C/CO)c(CO)c2c1C(=O)C=C(N1CC1)C2=O [EO9, 5-(1-aziridinyl)-3-(hydroxymethyl)-2-[(E)-3-hydroxyprop-1-enyl]-1-methyl-1H-indole-4,7-dione]",half-life,[1]; pH 5.5,37 min
same,half-life,[1]; pH 6,150 min
same,rate of reduction of EO9 by purified human NQO1,recombinant human NQO1; pH 6.0,21.30±1.50 nmol cytochrome c reduced/min/mg protein
same,"specific activity, cytochrome c reduced/min/mg protein",recombinant human NQO1; pH 6.0,21.30±1.5 pmol cytochrome c reduced/min/mg protein
same,rate of reduction of EO9 by purified human NQO1,recombinant human NQO1; pH 7.4,21.10±2.30 nmol cytochrome c reduced/min/mg protein
same,"specific activity, cytochrome c reduced/min/mg protein",recombinant human NQO1; pH 7.4,21.10±2.3 pmol cytochrome c reduced/min/mg protein
same,clinical response,[2],three partial remissions
same,ratio of IC50 values for spheroids to monolayers,"[3]; HT-29, pHe 6.0",341
same,ratio of IC50 values for spheroids to monolayers,"[3]; HT-29, pHe 7.4",202
same,IC50,"[3]; pHe 6.0, one hour exposure",9890 ± 890 nM
same,IC50,"[3]; pHe 7.4, one hour exposure",24200 ± 3290 nM
same,cells killed in spheroids,[3]; at higher doses,> 90%
same,clinical activity,[4],no activity
same,plasma elimination half-life,[5],10 min
same,"SR = Selectivity Ratio, IC50 at pHe 7.4 divided by IC50 at pHe 6.0","H460 cells; H460 cells, with or without FAA 2 mM",6.31
same,IC50,"H460 cells; pHe 6.0, with or without FAA 2 mM",9.5 ± 2.6 nM
same,IC50,"H460 cells; pHe 7.4, with or without FAA 2 mM",60 ± 8.1 nM
same,tumor growth delay,[6],significant growth delays
same,SR (selectivity ratio) = IC50 at pH 7.4/IC50 at pH 6.0,HT-29; HT-29,4.13
same,IC50,"HT-29; Homo sapiens, HT-29, 1 h, read-out: IC50 pHe 6.0",29 ± 10 nM
same,IC50,"HT-29; Homo sapiens, HT-29, 1 h, read-out: IC50 pHe 7.4",120 ± 53 nM
same,IC50,"RT112; Homo sapiens, RT-112, 1 h, read-out: IC50 pHe 6.0",61 ± 13 nM
same,IC50,"RT112; Homo sapiens, RT-112, 1 h, read-out: IC50 pHe 7.4",1050 ± 75 nM
same,SR (selectivity ratio) = IC50 at pH 7.4/IC50 at pH 6.0,RT112; RT112,17.21
same,SR (selectivity ratio) = IC50 at pH 7.4/IC50 at pH 6.0,H460; H460,6.31
same,IC50,"H460; Homo sapiens, NCI-H460, 1 h, read-out: IC50 pHe 6.0",9.5 ± 2 nM
same,IC50,"H460; Homo sapiens, NCI-H460, 1 h, read-out: IC50 pHe 7.4",60 ± 10 nM
same,SR (selectivity ratio) = IC50 at pH 7.4/IC50 at pH 6.0,BE; BE,4.07
same,IC50,"BE; Homo sapiens, 1 h, read-out: IC50 pHe 6.0",1300 ± 75 nM
same,IC50,"BE; Homo sapiens, 1 h, read-out: IC50 pHe 7.4",5300 ± 169 nM
same,IC50,"T24/83; Homo sapiens, T24/83, 1 h, read-out: IC50 pHe 6.0",60 ± 18 nM
same,IC50,"T24/83; Homo sapiens, T24/83, 1 h, read-out: IC50 pHe 7.4",290 ± 65 nM
same,SR (selectivity ratio) = IC50 at pH 7.4/IC50 at pH 6.0,T24/83; T24/83,4.83
same,SR (selectivity ratio) = IC50 at pH 7.4/IC50 at pH 6.0,A2780; A2780,3.92
same,IC50,"A2780; Homo sapiens, A2780, 1 h, read-out: IC50 pHe 6.0",51 ± 14 nM
same,IC50,"A2780; Homo sapiens, A2780, 1 h, read-out: IC50 pHe 7.4",200 ± 50 nM
same,SR (selectivity ratio) = IC50 at pH 7.4/IC50 at pH 6.0,EJ138; EJ138,7.94
same,IC50,"EJ138; Homo sapiens, EJ138, 1 h, read-out: IC50 pHe 6.0",39 ± 7 nM
same,IC50,"EJ138; Homo sapiens, EJ138, 1 h, read-out: IC50 pHe 7.4",310 ± 95 nM
same,solubility,"[7]; tert-butanol formulation vehicle, aqueous with cosolvent or surfactant or cyclodextrin",≥ 9500 µg/mL
same,solubility,[7]; water,~200 µg/mL
"CO[C@@]12[C@H](COC(N)=O)C3=C(C(=O)C(C)=C(N)C3=O)N1C[C@@H]1N[C@@H]12 [MMC, Mitomycin C, reference compound]",IC50,"HT-29; HT-29, pHe 6.0, one hour exposure, read-out: IC50 pHe 6.0",500 ± 240 nM
same,IC50,"HT-29; HT-29, pHe 7.4, one hour exposure, read-out: IC50 pHe 7.4",1050 ± 210 nM
same,IC50,"RT112; RT112, pHe 6.0, one hour exposure, read-out: IC50 pHe 6.0",2000 ± 500 nM
same,IC50,"RT112; RT112, pHe 7.4, one hour exposure, read-out: IC50 pHe 7.4",3350 ± 250 nM
same,IC50,"H460; H460, pHe 6.0, one hour exposure, read-out: IC50 pHe 6.0",220 ± 130 nM
same,IC50,"H460; H460, pHe 7.4, one hour exposure, read-out: IC50 pHe 7.4",900 ± 200 nM
same,IC50,"BE; BE, pHe 6.0, one hour exposure, read-out: IC50 pHe 6.0",4400 ± 215 nM
same,IC50,"BE; BE, pHe 7.4, one hour exposure, read-out: IC50 pHe 7.4",7000 ± 192 nM
same,IC50,"T24/83; T24/83, pHe 6.0, one hour exposure, read-out: IC50 pHe 6.0",2100 ± 800 nM
same,IC50,"T24/83; T24/83, pHe 7.4, one hour exposure, read-out: IC50 pHe 7.4",2150 ± 93 nM
same,IC50,"A2780; A2780, pHe 6.0, one hour exposure, read-out: IC50 pHe 6.0",1400 ± 130 nM
same,IC50,"A2780; A2780, pHe 7.4, one hour exposure, read-out: IC50 pHe 7.4",2400 ± 340 nM
same,IC50,"EJ138; EJ138, pHe 6.0, one hour exposure, read-out: IC50 pHe 6.0",1400 ± 250 nM
same,IC50,"EJ138; EJ138, pHe 7.4, one hour exposure, read-out: IC50 pHe 7.4",1600 ± 200 nM
same,difference in toxicity between physiological and acidic pHe,histocultures,no difference in toxicity
